Results on 2 molecules are retold here after publication PMC3759246 (Bioorganic & medicinal chemistry letters, 2013).

The structures appear in SMILES notation. Marks after values point to notes of the source that are not given here.

The conditions of data set [1]: cited from earlier work.
The test system of a further data set is WT HIV-1 (IIIB). Description: microbe, parasite or virus in culture. As to conditions: Human immunodeficiency virus 1, IIIB, MT2, read-out: EC50 in cell assays.

For the molecule `Cc1cc(C#N)cc(C)c1Oc1nc(Nc2ccc(C#N)cc2)nc(N)c1Br` [etravirine], in data set [1], the “Aqueous solubility S” value is reported as “≪ 1 ^b μg/mL”.
Regarding `Cc1ccnc2c1NC(=O)c1cccnc1N2C1CC1` [nevirapine], the EC50 – broadly, the concentration at which the effect is half-maximal – with WT HIV-1 (IIIB) was ~0.1 µM.
